Measurements: patent US20210112813A1, “HERBICIDAL COMPOSITION AND USE THEREOF” (NANTONG JIANGSHAN AGROCHEMICAL & CHEMICALS CO., LTD., priority 2019, published 2021)

Experiments:
Format in all cases: in vivo
Abutilon [1] = assay: Greenhouse pot test, pre-emergence soil treatment, visual control effect 30 days after treatment, Gowing method
Procedure: (§1) In the present application, indoor combined action of the compound of herbicide active component A and B on weeds was measured to determine the combined effect of the composition on weeds, wherein the structure of the active component A was as follows:
(§2) The weed cultivation method was as follows: quantitative weed seeds abutilon and bristlegrass were respectively sown in a paper cup filled with nutrient soil with a diameter of 7 cm, and then cultivated in the greenhouse after covering the soil, suppressing and watering. The post-emergence stem and leaf treatment was performed when the grass weeds grew to 5-7 leaf stage, broad-leaved weeds grew to 6-8 leaf stage; the pre-emergence soil treatment was performed the second day after sowing, and the early post-emergence treatment was performed after sowing and before emergence; the experiment was repeated 3 times. After the treatment and drug solution naturally dried, the weeds were placed in the greenhouse to be managed according to conventional methods. According to the suppression or death of the weeds, a visual control effect investigation was conducted 30 days after the treatment. The application adopted the Gowing method to evaluate the combined effect of the proposed composition.
(§3) X—Weed control effect when the amount of herbicide component A is P;
(§4) Y—Weed control effect when the amount of herbicide component B is Q;
(§5) E0—Theoretical control effect when the amount of herbicide component A is […];
(§6) E—The measured control effect after the herbicide component A and the herbicide component B are mixed according to the above ratio.
(§7) When E−E0>10%, it is synergism; when E−E0<−10%, it is antagonism; when E−E0 value is between ±10%, it is addition.

Bristlegrass [2] = assay: as above
Procedure: as §1, §2, §3, §4, §5, §6, §7

Lambsquarters [3] = assay: as above
Eclipta alba = assay: as above
Abutilon [4] = assay: Greenhouse pot test, post-emergence stem and leaf treatment, visual control effect 30 days after treatment, Gowing method
Procedure: as §1, §2, §3, §4, §5, §6, §7

Bristlegrass [5] = assay: as above
Procedure: as §1, §2, §3, §4, §5, §6, §7

Bristlegrass [6] = assay: Greenhouse pot test (treatment timing not given, Tables 6 and 7), visual control effect, Gowing method
Procedure: as §1, §2, §3, §4, §5, §6, §7

Abutilon [7] = assay: Greenhouse pot test (treatment timing not given, Table 6), visual control effect, Gowing method
Procedure: as §1, §2, §3, §4, §5, §6, §7

Amaranthusretroflexus [8] = assay: Greenhouse pot test (treatment timing not given, Table 7), visual control effect, Gowing method
Abutilon [9] = assay: Example 12 indoor pot experiment, stem and leaf spray, visual control effect 30 days after treatment, Gowing method
Procedure: (§8) The combined effect of the composition on the weeds was clarified by the indoor pot experiment.
(§9) The weed cultivation and test material cultivation method was as follows: quantitative weed seeds abutilon and bristlegrass were respectively sown in a paper cup filled with nutrient soil with a diameter of 7 cm, and then cultivated in the greenhouse after covering the soil, suppressing and watering. The stem and leaf spray treatment was performed when the grass weeds grew to 5-7 leaf stage, and broad-leaved weeds grew to 6-8 leaf stage; the tests were repeated for 3 times. the treatment and drug solution naturally dried, the weeds were placed in the greenhouse to be managed according to conventional methods. According to the suppression or death of the weeds, a visual control effect investigation was conducted 30 days after the treatment.
(§10) The application adopted the Gowing method to evaluate the combined effect of the proposed composition.
as §3, §4, §5, §6, §7

Bristlegrass [10] = assay: as above
Procedure: as §8, §9, §10, §3, §4, §5, §6, §7

[11] = test system: Horseweed herb (collected from Shenyang, Liaoning); assay: Example 13 combined effect on weeds, Gowing method
Procedure: as §9, §10, §3, §4, §5, §6, §7
(§11) The test targets were horseweed herb collected from Shenyang, Liaoning and goosegrass collected from Zhengzhou, Henan.

[12] = test system: goosegrass (collected from Zhengzhou, Henan); assay: Example 13 combined effect on weeds, Gowing method
Procedure: as §9, §10, §3, §4, §5, §6, §7, §11

Abutilon [13] = assay: Example 15 indoor pot planting, death rate / herbicidal speed, weeds in 6-leaf stage
Procedure: (§12) The death rate of weeds after application of the herbicidal composition of the present application was measured and compared with the herbicidal rate when a single component was used. The test used the method of indoor pot planting. At the time of treatment, abutilon and barnyardgrass were in 6-leaf stage.

Echinochloacrusgalli = assay: as above
Procedure: as §12

Amaranthusretroflexus [14] = assay: Field plot test, non-cultivated weeds, pre-emergence soil treatment; details: Table 8, dose 600 ga.i./hm^2
Procedure: (§13) The present application also conducted a medicinal efficacy test on weeds on the formulation examples containing herbicide active component A and active component B by the field plot test method, and clarified the control effect of the composition on non-cultivated weeds.
(§14) According to the different components of different formulation examples, pre-emergence soil treatment, early post-emergence and post-emergence stem and leaf spray treatment were carried out respectively. The spraying device was Singapore Linong HD400 hand-operating knapsack sprayer (No. H17001), working pressure: […], spray rate: 640 mL/min, adjustable cone spraying nozzle (325787), spraying nozzle height: 0.5 m, spray width: 0.85 m, walking speed: about 16.7 m/min, and spray volume: […];

Bristlegrass [15] = assay: as above; details: Table 8, dose 600 ga.i./hm^2
Procedure: as §13, §14

Crabgrass = assay: as above; details: Table 8, dose 600 ga.i./hm^2
Procedure: as §13, §14

Lambsquarters [16] = assay: as above; details: Table 8, dose 600 ga.i./hm^2
Procedure: as §13, §14

[17] = Example 12 Table 1, dose 3.75 ga.i./hm^2
[18] = Example 12 Table 1, dose 7.5 ga.i./hm^2
[19] = Example 12 Table 1, dose 15 ga.i./hm^2
[20] = Example 12 Table 1, dose 30 ga.i./hm^2
[21] = Example 13 Table 2, dose 3.75 ga.i./hm^2
[22] = Example 13 Table 2, dose 7.5 ga.i./hm^2
[23] = Example 13 Table 2, dose 15 ga.i./hm^2
[24] = Example 13 Table 2, dose 30 ga.i./hm^2
[25] = Table 11, 7 days after treatment, dose 15 ga.i./hm^2
[26] = Table 11, 7 days after treatment, dose 30 ga.i./hm^2
[27] = Table 11, 7 days after treatment, dose 60 ga.i./hm^2
[28] = Table 11, 7 days after treatment, dose 120 ga.i./hm^2
[29] = Table 11, 15 days after treatment, dose 15 ga.i./hm^2
[30] = Table 11, 15 days after treatment, dose 30 ga.i./hm^2
[31] = Table 11, 15 days after treatment, dose 60 ga.i./hm^2
[32] = Table 11, 15 days after treatment, dose 120 ga.i./hm^2
[33] = Table 11, 30 days after treatment, dose 15 ga.i./hm^2
[34] = Table 11, 30 days after treatment, dose 30 ga.i./hm^2
[35] = Table 11, 30 days after treatment, dose 60 ga.i./hm^2
[36] = Table 11, 30 days after treatment, dose 120 ga.i./hm^2

With `CCOC(=O)C1(C)CC(c2cc(-n3c(=O)cc(C(F)(F)F)n(C)c3=O)c(F)cc2Cl)=NO1` (stereo not shown) [active component A, 3-(2-chloro-4-fluoro-5-(3-methyl-2,6-dioxo-4-trifluoromethyl-3,6-dihydropyrimidine-1(2H)-yl)phenyl)-5-methyl-4,5-dihydroisoxazole-5-carboxylic acid ethyl ester] the “Measured value E” value (Abutilon [1]; Table 4, dose 15 ga.i./hm^2) was 5%, the “Measured value E” value (Abutilon [1]; Table 4, dose 30 ga.i./hm^2) was 20% and the “Measured value E” value (Bristlegrass [2]; Table 1, dose 7.5 ga.i./hm^2) was 0%. The “Measured value E” value (Bristlegrass [2]; Table 1, dose 15 ga.i./hm^2) was 15%, the “Measured value E” value (Bristlegrass [2]; Table 2, dose 15 ga.i./hm^2) was 10% and the “Measured value E” value (Bristlegrass [2]; Table 2, dose 22.5 ga.i./hm^2) was 25%. The “Measured value E” value (Bristlegrass [2]; Table 3, dose 7.5 ga.i./hm^2) was 0%, the “Measured value E” value (Bristlegrass [2]; Table 3, dose 15 ga.i./hm^2) was 10% and the “Measured value E” value (Bristlegrass [2]; Table 4, dose 15 ga.i./hm^2) was 10%. For the same compound, the “Measured value E” value (Bristlegrass [2]; Table 4, dose 30 ga.i./hm^2) was 15%, the “Measured value E” value (Lambsquarters [3]; Table 1, dose 7.5 ga.i./hm^2) was 5% and the “Measured value E” value (Lambsquarters [3]; Table 1, dose 15 ga.i./hm^2) was 20%. The “Measured value E” value (Lambsquarters [3]; Table 2, dose 15 ga.i./hm^2) was 15%, the “Measured value E” value (Lambsquarters [3]; Table 2, dose 22.5 ga.i./hm^2) was 25% and the “Measured value E” value (Eclipta alba; Table 3, dose 7.5 ga.i./hm^2) was 0%. For the same compound, the “Measured value E” value (Eclipta alba; Table 3, dose 15 ga.i./hm^2) was 10%, the “Measured value E” value (Abutilon [4]; Table 5, dose 7.5 ga.i./hm^2) was 10% and the “Measured value E” value (Abutilon [4]; Table 5, dose 15 ga.i./hm^2) was 15%. The “Measured value E” value (Bristlegrass [5]; Table 5, dose 7.5 ga.i./hm^2) was 5%, the “Measured value E” value (Bristlegrass [5]; Table 5, dose 15 ga.i./hm^2) was 10% and the “Measured value E” value (Bristlegrass [6]; Table 6, dose 15 ga.i./hm^2) was 10%. The “Measured value E” value (Bristlegrass [6]; Table 6, dose 60 ga.i./hm^2) was 35%, the “Measured value E” value (Bristlegrass [6]; Table 7, dose 15 ga.i./hm^2) was 20% and the “Measured value E” value (Bristlegrass [6]; Table 7, dose 30 ga.i./hm^2) was 50%. The “Measured value E” value (Abutilon [7]; dose 15 ga.i./hm^2) was 35%, the “Measured value E” value (Abutilon [7]; dose 60 ga.i./hm^2) was 45% and the “Measured value E” value (Amaranthusretroflexus [8]; dose 15 ga.i./hm^2) was 20%. For the same compound, the “Measured value E” value (Amaranthusretroflexus [8]; dose 30 ga.i./hm^2) was 65%, the “Measured value E” value (Abutilon [9]; [17]) was 10% and the “Measured value E” value (Abutilon [9]; [18]) was 25%. The “Measured value E” value (Abutilon [9]; [19]) was 40%, the “Measured value E” value (Abutilon [9]; [20]) was 55% and the “Measured value E” value (Bristlegrass [10]; [17]) was 5%. For the same compound, the “Measured value E” value (Bristlegrass [10]; [18]) was 10%, the “Measured value E” value (Bristlegrass [10]; [19]) was 15% and the “Measured value E” value (Bristlegrass [10]; [20]) was 25%. The “Measured value E” value [11, 21] was 10%, the “Measured value E” value [11, 22] was 30% and the “Measured value E” value [11, 23] was 35%. For the same compound, the “Measured value E” value [11, 24] was 55%, the “Measured value E” value [12, 21] was 5% and the “Measured value E” value [12, 22] was 15%. For the same compound, the “Measured value E” value [12, 23] was 30%, the “Measured value E” value [12, 24] was 45% and the “Control effect (visual observation %)” value (Abutilon [13]; [25]) was 46.0%. The “Control effect (visual observation %)” value (Abutilon [13]; [26]) was 68.1%, the “Control effect (visual observation %)” value (Abutilon [13]; [27]) was 82.4% and the “Control effect (visual observation %)” value (Abutilon [13]; [28]) was 94.3%. For the same compound, the “Control effect (visual observation %)” value (Abutilon [13]; [29]) was 54.0%, the “Control effect (visual observation %)” value (Abutilon [13]; [30]) was 62.4% and the “Control effect (visual observation %)” value (Abutilon [13]; [31]) was 93.8%. The “Control effect (visual observation %)” value (Abutilon [13]; [32]) was 100%, the “Control effect (visual observation %)” value (Abutilon [13]; [33]) was 38.6% and the “Control effect (visual observation %)” value (Abutilon [13]; [34]) was 57.3%. The “Control effect (visual observation %)” value (Abutilon [13]; [35]) was 100%, the “Control effect (visual observation %)” value (Abutilon [13]; [36]) was 100% and the “Control effect (visual observation %)” value (Echinochloacrusgalli; [25]) was 16.6%. For the same compound, the “Control effect (visual observation %)” value (Echinochloacrusgalli; [26]) was 18.0%, the “Control effect (visual observation %)” value (Echinochloacrusgalli; [27]) was 31.0% and the “Control effect (visual observation %)” value (Echinochloacrusgalli; [28]) was 34.3%. The “Control effect (visual observation %)” value (Echinochloacrusgalli; [29]) was 18.4%, the “Control effect (visual observation %)” value (Echinochloacrusgalli; [30]) was 19.8% and the “Control effect (visual observation %)” value (Echinochloacrusgalli; [31]) was 36.7%. For the same compound, the “Control effect (visual observation %)” value (Echinochloacrusgalli; [32]) was 40.7%, the “Control effect (visual observation %)” value (Echinochloacrusgalli; [33]) was 20.9% and the “Control effect (visual observation %)” value (Echinochloacrusgalli; [34]) was 43.2%. For the same compound, the “Control effect (visual observation %)” value (Echinochloacrusgalli; [35]) was 32.9% and the “Control effect (visual observation %)” value (Echinochloacrusgalli; [36]) was 42.5%.

With `CCc1cccc(C)c1N(C(=O)CCl)C(C)COC` (stereo not shown) [metolachlor] the “Measured value E” value (Bristlegrass [2]; Table 2, dose 90 ga.i./hm^2) was 40%, the “Measured value E” value (Bristlegrass [2]; Table 2, dose 135 ga.i./hm^2) was 60% and the “Measured value E” value (Lambsquarters [3]; Table 2, dose 90 ga.i./hm^2) was 50%. The “Measured value E” value (Lambsquarters [3]; Table 2, dose 135 ga.i./hm^2) was 55%, the “Control effect, Amaranthusretroflexus” value (Amaranthusretroflexus [14]) was 60 and the “Control effect, Bristlegrass” value (Bristlegrass [15]) was 45. The “Control effect, Crabgrass” value (Crabgrass) was 60 and the “Control effect, Lambsquarters” value (Lambsquarters [16]) was 50.
